# In patent US20030237103A1, “Methods and compositions for pharmacological and toxicological evaluation of test agents” (priority 2002, published 2003):
# Test system: Panel, parental and outbred (CD-IGS) rat strains
# Assay: Clinical chemistry endpoints of gentamicin-treated vs. vehicle rats
# Conditions: for T-test value ALB / T-test value ALP / T-test value ALT / T-test value ANION GAP / T-test value AST / T-test value BICARB / T-test value BUN / T-test value CA / T-test value CHOL / T-test value CREAT / T-test value GGT / T-test value GLOB / T-test value GLU / T-test value K / T-test value NA / T-test value PHOS / T-test value TBIL / T-test value TP / T-test value TRIG: 240 mg/Kg gentamicin vs. vehicle
# Excerpt: Percent increase is defined as[(mean drug—mean vehicle control)/mean vehicle control×100] for each strain tested. The number of animals tested in each group is noted below the strain designation in parenthesis as #drug treated animals per #vehicle treated animals.
# We sought to maximize the range of genetic susceptibility to the adverse drug effects across the strains.
# [1] = Panel (all 6 hybrid strains together)
# [2] = Parental Group (all 4 parents combined)
substance,measurement,setting,value
gentamicin,nephrotoxic phenotypes at the first dose,"120 mg/kg gentamicin, all strains (not shown)","did not produce a robust set of phenotypes, except in LEW rats"
same,T-test value ALB,BN rats,0.028
same,T-test value ALP,BN rats,0.040
same,T-test value ALT,BN rats,0.618
same,T-test value ANION GAP,BN rats,0.369
same,T-test value AST,BN rats,0.110
same,T-test value BICARB,BN rats,0.642
same,T-test value BUN,BN rats,0.003
same,T-test value CA,BN rats,0.460
same,T-test value CHOL,BN rats,0.092
same,T-test value CREAT,BN rats,0.005
same,T-test value GGT,BN rats,0.121
same,T-test value GLOB,BN rats,0.517
same,T-test value GLU,BN rats,0.937
same,T-test value K,BN rats,0.264
same,T-test value NA,BN rats,0.036
same,T-test value PHOS,BN rats,0.021
same,T-test value TBIL,BN rats,0.040
same,T-test value TP,BN rats,0.133
same,T-test value TRIG,BN rats,0.042
same,T-test value ALB,BNxF344 rats,0.089
same,T-test value ALP,BNxF344 rats,0.000
same,T-test value ALT,BNxF344 rats,0.171
same,T-test value ANION GAP,BNxF344 rats,0.770
same,T-test value AST,BNxF344 rats,0.005
same,T-test value BICARB,BNxF344 rats,0.765
same,T-test value BUN,BNxF344 rats,0.000
same,T-test value CA,BNxF344 rats,0.397
same,T-test value CHOL,BNxF344 rats,0.216
same,T-test value CREAT,BNxF344 rats,0.000
same,T-test value GLOB,BNxF344 rats,0.165
same,T-test value GLU,BNxF344 rats,0.434
same,T-test value K,BNxF344 rats,0.899
same,T-test value NA,BNxF344 rats,0.128
same,T-test value PHOS,BNxF344 rats,0.657
same,T-test value TBIL,BNxF344 rats,0.745
same,T-test value TP,BNxF344 rats,0.802
same,T-test value TRIG,BNxF344 rats,0.000
same,T-test value ALB,CD-IGS rats,0.493
same,T-test value ALP,CD-IGS rats,0.312
same,T-test value ALT,CD-IGS rats,0.714
same,T-test value ANION GAP,CD-IGS rats,0.222
same,T-test value AST,CD-IGS rats,0.740
same,T-test value BICARB,CD-IGS rats,0.030
same,T-test value BUN,CD-IGS rats,0.013
same,T-test value CA,CD-IGS rats,0.078
same,T-test value CHOL,CD-IGS rats,0.742
same,T-test value CREAT,CD-IGS rats,0.024
same,T-test value GGT,CD-IGS rats,0.331
same,T-test value GLOB,CD-IGS rats,0.252
same,T-test value GLU,CD-IGS rats,0.104
same,T-test value K,CD-IGS rats,0.229
same,T-test value NA,CD-IGS rats,0.138
same,T-test value PHOS,CD-IGS rats,0.620
same,T-test value TBIL,CD-IGS rats,0.720
same,T-test value TP,CD-IGS rats,0.807
same,T-test value TRIG,CD-IGS rats,0.946
same,T-test value ALB,F344 rats,0.002
same,T-test value ALP,F344 rats,0.017
same,T-test value ALT,F344 rats,0.108
same,T-test value ANION GAP,F344 rats,0.428
same,T-test value AST,F344 rats,0.304
same,T-test value BICARB,F344 rats,0.080
same,T-test value BUN,F344 rats,0.015
same,T-test value CA,F344 rats,0.637
same,T-test value CHOL,F344 rats,0.811
same,T-test value CREAT,F344 rats,0.006
same,T-test value GGT,F344 rats,0.363
same,T-test value GLOB,F344 rats,0.170
same,T-test value GLU,F344 rats,0.169
same,T-test value K,F344 rats,0.287
same,T-test value NA,F344 rats,0.020
same,T-test value PHOS,F344 rats,0.350
same,T-test value TBIL,F344 rats,0.969
same,T-test value TP,F344 rats,0.000
same,T-test value TRIG,F344 rats,0.052
same,T-test value ALB,LEW rats,0.015
same,T-test value ALP,LEW rats,0.419
same,T-test value ALT,LEW rats,0.080
same,T-test value ANION GAP,LEW rats,0.283
same,T-test value AST,LEW rats,0.754
same,T-test value BICARB,LEW rats,0.061
same,T-test value BUN,LEW rats,0.002
same,T-test value CA,LEW rats,0.000
same,T-test value CHOL,LEW rats,0.007
same,T-test value CREAT,LEW rats,0.006
same,T-test value GLOB,LEW rats,0.167
same,T-test value GLU,LEW rats,0.318
same,T-test value K,LEW rats,0.349
same,T-test value NA,LEW rats,0.361
same,T-test value PHOS,LEW rats,0.203
same,T-test value TBIL,LEW rats,0.648
same,T-test value TP,LEW rats,0.102
same,T-test value TRIG,LEW rats,0.405
same,T-test value ALB,LEWxBN rats,0.081
same,T-test value ALP,LEWxBN rats,0.005
same,T-test value ALT,LEWxBN rats,0.293
same,T-test value ANION GAP,LEWxBN rats,0.071
same,T-test value AST,LEWxBN rats,0.417
same,T-test value BICARB,LEWxBN rats,0.076
same,T-test value BUN,LEWxBN rats,0.001
same,T-test value CA,LEWxBN rats,0.000
same,T-test value CHOL,LEWxBN rats,0.533
same,T-test value CREAT,LEWxBN rats,0.002
same,T-test value GLOB,LEWxBN rats,0.419
same,T-test value GLU,LEWxBN rats,0.016
same,T-test value K,LEWxBN rats,0.145
same,T-test value NA,LEWxBN rats,0.955
same,T-test value PHOS,LEWxBN rats,0.431
same,T-test value TBIL,LEWxBN rats,0.060
same,T-test value TP,LEWxBN rats,0.434
same,T-test value TRIG,LEWxBN rats,0.037
same,T-test value ALB,LEWxF344 rats,0.071
same,T-test value ALP,LEWxF344 rats,0.144
same,T-test value ALT,LEWxF344 rats,0.380
same,T-test value ANION GAP,LEWxF344 rats,0.157
same,T-test value AST,LEWxF344 rats,0.375
same,T-test value BICARB,LEWxF344 rats,0.114
same,T-test value BUN,LEWxF344 rats,0.019
same,T-test value CA,LEWxF344 rats,0.777
same,T-test value CHOL,LEWxF344 rats,0.889
same,T-test value CREAT,LEWxF344 rats,0.014
same,T-test value GGT,LEWxF344 rats,0.351
same,T-test value GLOB,LEWxF344 rats,0.080
same,T-test value GLU,LEWxF344 rats,0.455
same,T-test value K,LEWxF344 rats,0.216
same,T-test value NA,LEWxF344 rats,0.227
same,T-test value PHOS,LEWxF344 rats,0.652
same,T-test value TBIL,LEWxF344 rats,0.560
same,T-test value TP,LEWxF344 rats,1.000
same,T-test value TRIG,LEWxF344 rats,0.129
same,increase in BUN,"LEW×F344, BN, F344, LEW and LEW×Bn strains, gentamicin treated",2-3 fold
same,T-test value ALB,[1],0.000
same,T-test value ALP,[1],0.300
same,T-test value ALT,[1],0.440
same,T-test value ANION GAP,[1],0.802
same,T-test value AST,[1],0.026
same,T-test value BICARB,[1],0.204
same,T-test value BUN,[1],0.000
same,T-test value CA,[1],0.004
same,T-test value CHOL,[1],0.404
same,T-test value CREAT,[1],0.000
same,T-test value GGT,[1],0.078
same,T-test value GLOB,[1],0.024
same,T-test value GLU,[1],0.497
same,T-test value K,[1],0.032
same,T-test value NA,[1],0.064
same,T-test value PHOS,[1],0.091
same,T-test value TBIL,[1],0.244
same,T-test value TP,[1],0.036
same,T-test value TRIG,[1],0.000
same,T-test value ALB,[2],0.000
same,T-test value ALP,[2],0.037
same,T-test value ALT,[2],0.047
same,T-test value ANION GAP,[2],0.046
same,T-test value AST,[2],0.040
same,T-test value BICARB,[2],0.068
same,T-test value BUN,[2],0.000
same,T-test value CA,[2],0.018
same,T-test value CHOL,[2],0.327
same,T-test value CREAT,[2],0.000
same,T-test value GGT,[2],0.083
same,T-test value GLOB,[2],0.638
same,T-test value GLU,[2],0.244
same,T-test value K,[2],0.486
same,T-test value NA,[2],0.000
same,T-test value PHOS,[2],0.016
same,T-test value TBIL,[2],0.141
same,T-test value TP,[2],0.002
same,T-test value TRIG,[2],0.000
same,T-test value ALB,WKY rats,0.034
same,T-test value ALP,WKY rats,0.003
same,T-test value ALT,WKY rats,0.346
same,T-test value ANION GAP,WKY rats,0.137
same,T-test value AST,WKY rats,0.244
same,T-test value BICARB,WKY rats,0.229
same,T-test value BUN,WKY rats,0.264
same,T-test value CA,WKY rats,0.969
same,T-test value CHOL,WKY rats,0.232
same,T-test value CREAT,WKY rats,0.156
same,T-test value GLOB,WKY rats,0.358
same,T-test value GLU,WKY rats,0.742
same,T-test value K,WKY rats,0.881
same,T-test value NA,WKY rats,0.134
same,T-test value PHOS,WKY rats,0.014
same,T-test value TBIL,WKY rats,0.052
same,T-test value TP,WKY rats,0.254
same,T-test value TRIG,WKY rats,0.010
same,T-test value ALB,WKYxBN rats,0.080
same,T-test value ALP,WKYxBN rats,0.008
same,T-test value ALT,WKYxBN rats,0.172
same,T-test value ANION GAP,WKYxBN rats,0.887
same,T-test value AST,WKYxBN rats,0.575
same,T-test value BICARB,WKYxBN rats,0.923
same,T-test value BUN,WKYxBN rats,0.016
same,T-test value CA,WKYxBN rats,0.175
same,T-test value CHOL,WKYxBN rats,0.610
same,T-test value CREAT,WKYxBN rats,0.026
same,T-test value GGT,WKYxBN rats,0.189
same,T-test value GLOB,WKYxBN rats,0.361
same,T-test value GLU,WKYxBN rats,1.000
same,T-test value K,WKYxBN rats,0.114
same,T-test value NA,WKYxBN rats,0.401
same,T-test value PHOS,WKYxBN rats,0.118
same,T-test value TBIL,WKYxBN rats,0.020
same,T-test value TP,WKYxBN rats,0.070
same,T-test value TRIG,WKYxBN rats,0.032
same,T-test value ALB,WKYxF344 rats,0.002
same,T-test value ALP,WKYxF344 rats,0.000
same,T-test value ALT,WKYxF344 rats,0.530
same,T-test value ANION GAP,WKYxF344 rats,0.434
same,T-test value AST,WKYxF344 rats,0.596
same,T-test value BICARB,WKYxF344 rats,0.318
same,T-test value BUN,WKYxF344 rats,0.005
same,T-test value CA,WKYxF344 rats,0.135
same,T-test value CHOL,WKYxF344 rats,0.867
same,T-test value CREAT,WKYxF344 rats,0.043
same,T-test value GLOB,WKYxF344 rats,0.104
same,T-test value GLU,WKYxF344 rats,0.375
same,T-test value K,WKYxF344 rats,0.270
same,T-test value NA,WKYxF344 rats,0.128
same,T-test value PHOS,WKYxF344 rats,0.010
same,T-test value TBIL,WKYxF344 rats,0.002
same,T-test value TP,WKYxF344 rats,0.125
same,T-test value TRIG,WKYxF344 rats,0.007
same,T-test value ALB,WKYxLEW rats,0.001
same,T-test value ALP,WKYxLEW rats,0.001
same,T-test value ALT,WKYxLEW rats,0.584
same,T-test value ANION GAP,WKYxLEW rats,0.429
same,T-test value AST,WKYxLEW rats,0.677
same,T-test value BICARB,WKYxLEW rats,0.085
same,T-test value BUN,WKYxLEW rats,0.000
same,T-test value CA,WKYxLEW rats,0.092
same,T-test value CHOL,WKYxLEW rats,0.608
same,T-test value CREAT,WKYxLEW rats,0.000
same,T-test value GLOB,WKYxLEW rats,0.365
same,T-test value GLU,WKYxLEW rats,0.001
same,T-test value K,WKYxLEW rats,0.689
same,T-test value NA,WKYxLEW rats,0.514
same,T-test value PHOS,WKYxLEW rats,0.123
same,T-test value TBIL,WKYxLEW rats,0.685
same,T-test value TP,WKYxLEW rats,0.000
same,T-test value TRIG,WKYxLEW rats,0.015
